Assay results from ChEMBL document CHEMBL3879901, “Substituted isoquinolin-1(2H)-ones, and methods of use thereof” (2012).

Tests used:
[1] = Antiproliferative activity against Balb/c mouse splenic B cells preincubated for 30 mins followed by LPS or F(ab')2 donkey anti-mouse IgM and recombinant mouse IL4 stimulation measured after 72 hrs by Alamar Blue reduction assay; type: functional, cell-based
[2] = target: PI3-kinase p110-delta/p85-alpha (Homo sapiens, UniProt O00329); assay: Inhibition of N-terminal His6-tagged recombinant full-length human p110delta/untagged recombinant full length p85alpha expressed in baculovirus infected Sf21 cells using phosphatidylinositol as substrate in presence of gamma-32P-ATP after 5 mins by thin layer chromatographic method
Sequence of PI3-kinase p110-delta/p85-alpha (P27986 whole entry): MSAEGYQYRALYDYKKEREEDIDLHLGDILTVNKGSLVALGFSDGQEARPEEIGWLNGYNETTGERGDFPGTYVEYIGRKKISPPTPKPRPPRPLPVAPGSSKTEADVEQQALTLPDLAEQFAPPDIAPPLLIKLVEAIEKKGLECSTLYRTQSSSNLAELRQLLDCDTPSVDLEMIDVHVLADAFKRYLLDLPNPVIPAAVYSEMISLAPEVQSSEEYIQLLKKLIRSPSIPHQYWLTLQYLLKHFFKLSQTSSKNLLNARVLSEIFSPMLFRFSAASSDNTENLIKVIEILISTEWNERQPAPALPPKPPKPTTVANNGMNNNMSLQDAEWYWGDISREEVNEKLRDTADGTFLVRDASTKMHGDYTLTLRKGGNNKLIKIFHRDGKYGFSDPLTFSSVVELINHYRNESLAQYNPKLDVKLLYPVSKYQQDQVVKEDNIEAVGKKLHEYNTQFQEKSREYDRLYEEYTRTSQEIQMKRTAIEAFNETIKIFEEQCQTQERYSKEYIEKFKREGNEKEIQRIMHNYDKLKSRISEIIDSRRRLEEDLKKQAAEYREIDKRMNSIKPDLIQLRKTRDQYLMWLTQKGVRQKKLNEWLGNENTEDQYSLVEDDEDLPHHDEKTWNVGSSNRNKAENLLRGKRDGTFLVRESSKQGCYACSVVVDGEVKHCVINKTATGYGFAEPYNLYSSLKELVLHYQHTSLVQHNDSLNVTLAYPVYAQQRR
Sequence of PI3-kinase p110-delta/p85-alpha (O00329 whole entry): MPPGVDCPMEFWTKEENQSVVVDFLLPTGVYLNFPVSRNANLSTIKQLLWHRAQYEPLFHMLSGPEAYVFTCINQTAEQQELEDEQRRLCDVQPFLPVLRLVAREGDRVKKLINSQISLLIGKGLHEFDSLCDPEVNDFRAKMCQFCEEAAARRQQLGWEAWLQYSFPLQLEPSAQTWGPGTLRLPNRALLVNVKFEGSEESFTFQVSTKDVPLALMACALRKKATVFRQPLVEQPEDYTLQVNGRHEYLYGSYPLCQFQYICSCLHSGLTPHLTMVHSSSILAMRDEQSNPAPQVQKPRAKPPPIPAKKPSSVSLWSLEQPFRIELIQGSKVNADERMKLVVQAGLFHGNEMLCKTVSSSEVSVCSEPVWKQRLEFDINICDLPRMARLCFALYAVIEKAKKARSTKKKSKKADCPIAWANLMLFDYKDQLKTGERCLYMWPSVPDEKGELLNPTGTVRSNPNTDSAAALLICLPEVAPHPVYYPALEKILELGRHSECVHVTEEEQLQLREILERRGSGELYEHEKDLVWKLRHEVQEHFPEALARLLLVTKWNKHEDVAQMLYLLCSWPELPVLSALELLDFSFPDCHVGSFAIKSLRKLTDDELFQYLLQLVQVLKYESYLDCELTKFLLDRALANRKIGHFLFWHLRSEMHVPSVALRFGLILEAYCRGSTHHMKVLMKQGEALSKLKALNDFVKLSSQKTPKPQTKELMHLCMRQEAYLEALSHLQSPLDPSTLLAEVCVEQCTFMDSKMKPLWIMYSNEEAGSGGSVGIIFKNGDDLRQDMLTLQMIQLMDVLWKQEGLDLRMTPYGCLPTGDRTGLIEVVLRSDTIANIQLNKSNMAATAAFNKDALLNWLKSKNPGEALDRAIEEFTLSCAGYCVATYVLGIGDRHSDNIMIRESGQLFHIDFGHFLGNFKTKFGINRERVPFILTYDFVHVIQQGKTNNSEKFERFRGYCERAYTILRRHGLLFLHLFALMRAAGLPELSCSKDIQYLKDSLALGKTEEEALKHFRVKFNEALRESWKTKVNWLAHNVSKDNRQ

[3] = target: PI3-kinase p110-alpha/p85-alpha (Homo sapiens, UniProt P42336); assay: Inhibition of N-terminal His6-tagged recombinant full-length human p110alpha/untagged recombinant full length human p85alpha expressed in baculovirus infected Sf21 cells using phosphatidylinositol as substrate in presence of gamma-32P-ATP after 5 mins by thin layer chromatographic method
Sequence of PI3-kinase p110-alpha/p85-alpha (P27986 whole entry): as the sequence (P27986 whole entry) above
Sequence of PI3-kinase p110-alpha/p85-alpha (P42336 whole entry): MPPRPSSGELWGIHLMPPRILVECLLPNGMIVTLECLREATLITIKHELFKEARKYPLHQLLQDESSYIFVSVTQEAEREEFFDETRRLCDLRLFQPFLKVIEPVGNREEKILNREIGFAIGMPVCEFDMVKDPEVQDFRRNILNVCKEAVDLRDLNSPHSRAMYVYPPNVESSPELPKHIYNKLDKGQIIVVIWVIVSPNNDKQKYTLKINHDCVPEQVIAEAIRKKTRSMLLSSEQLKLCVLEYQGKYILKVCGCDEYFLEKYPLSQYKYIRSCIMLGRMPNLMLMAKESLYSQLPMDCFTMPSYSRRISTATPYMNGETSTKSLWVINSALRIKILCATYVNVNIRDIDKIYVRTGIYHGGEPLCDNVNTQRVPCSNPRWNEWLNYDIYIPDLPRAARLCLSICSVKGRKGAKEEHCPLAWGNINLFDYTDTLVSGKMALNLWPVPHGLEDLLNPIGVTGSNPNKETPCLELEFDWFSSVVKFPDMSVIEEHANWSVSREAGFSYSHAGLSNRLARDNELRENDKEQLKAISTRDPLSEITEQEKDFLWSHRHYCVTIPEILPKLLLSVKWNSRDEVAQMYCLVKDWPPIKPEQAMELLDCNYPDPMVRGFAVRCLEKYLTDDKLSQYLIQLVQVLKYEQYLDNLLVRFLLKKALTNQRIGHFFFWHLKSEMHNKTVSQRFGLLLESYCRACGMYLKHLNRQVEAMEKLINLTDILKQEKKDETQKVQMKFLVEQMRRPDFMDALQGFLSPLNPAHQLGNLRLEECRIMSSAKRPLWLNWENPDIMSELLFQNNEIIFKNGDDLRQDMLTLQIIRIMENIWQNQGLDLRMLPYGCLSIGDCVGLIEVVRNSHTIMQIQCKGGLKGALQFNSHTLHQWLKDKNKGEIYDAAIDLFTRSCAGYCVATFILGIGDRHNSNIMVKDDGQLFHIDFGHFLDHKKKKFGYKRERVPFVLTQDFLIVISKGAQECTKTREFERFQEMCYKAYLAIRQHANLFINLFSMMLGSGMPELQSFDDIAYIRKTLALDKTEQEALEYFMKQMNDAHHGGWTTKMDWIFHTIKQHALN

PI3K p110 beta/p85 alpha = PI3K p110 beta/p85 alpha (Homo sapiens, UniProt P42338); assay: Inhibition of N-terminal His6-tagged recombinant full-length human p110beta/untagged recombinant full length p85alpha expressed in baculovirus infected Sf21 cells using phosphatidylinositol as substrate in presence of gamma-32P-ATP after 5 mins by thin layer chromatographic method
Sequence of PI3K p110 beta/p85 alpha (P27986 whole entry): as the sequence (P27986 whole entry) above
Sequence of PI3K p110 beta/p85 alpha (P42338 whole entry): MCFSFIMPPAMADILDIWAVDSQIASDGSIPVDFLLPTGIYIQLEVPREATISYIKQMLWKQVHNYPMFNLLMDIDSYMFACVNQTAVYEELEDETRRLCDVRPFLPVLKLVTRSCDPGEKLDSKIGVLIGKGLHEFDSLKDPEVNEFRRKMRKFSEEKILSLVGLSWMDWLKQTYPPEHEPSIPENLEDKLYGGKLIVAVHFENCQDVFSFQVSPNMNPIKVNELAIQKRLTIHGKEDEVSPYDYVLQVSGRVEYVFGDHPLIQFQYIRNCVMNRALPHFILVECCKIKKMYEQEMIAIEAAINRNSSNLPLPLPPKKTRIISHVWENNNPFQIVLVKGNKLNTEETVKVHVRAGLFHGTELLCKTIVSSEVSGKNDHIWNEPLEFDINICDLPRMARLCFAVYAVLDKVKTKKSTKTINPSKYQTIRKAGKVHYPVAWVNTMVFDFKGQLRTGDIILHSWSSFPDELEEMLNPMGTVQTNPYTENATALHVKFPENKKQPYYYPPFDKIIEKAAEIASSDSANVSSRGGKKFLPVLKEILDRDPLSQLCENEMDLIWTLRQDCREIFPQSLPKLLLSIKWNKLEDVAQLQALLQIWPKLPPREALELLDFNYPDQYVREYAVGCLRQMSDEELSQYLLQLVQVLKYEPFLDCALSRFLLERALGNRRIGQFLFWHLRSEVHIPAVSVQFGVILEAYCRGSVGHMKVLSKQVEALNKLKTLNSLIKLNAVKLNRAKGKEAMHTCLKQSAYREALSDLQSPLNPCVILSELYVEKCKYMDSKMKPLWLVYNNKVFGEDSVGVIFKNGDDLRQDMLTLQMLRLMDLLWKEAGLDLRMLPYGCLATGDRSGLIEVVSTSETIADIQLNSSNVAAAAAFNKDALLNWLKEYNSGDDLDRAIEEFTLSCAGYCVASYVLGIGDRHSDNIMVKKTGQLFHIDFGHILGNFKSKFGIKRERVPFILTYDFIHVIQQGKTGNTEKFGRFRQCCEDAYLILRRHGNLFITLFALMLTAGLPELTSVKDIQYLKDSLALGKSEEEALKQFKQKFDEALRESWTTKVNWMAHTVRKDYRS

| Structure (SMILES) | IC50 [2] [nM] | IC50 [3] [nM] | IC50 (PI3K p110 beta/p85 alpha) [nM] | EC50 [1] [nM] |
| --- | --- | --- | --- | --- |
| Cc1ccccc1-n1c(Cn2nc(-c3ccn[nH]3)c3c(N)ncnc32)cc2cccc(C)c2c1=O | < 1000 | > 10000 | > 10000 | – |
| Cc1ccccc1-n1c(Cn2nc(-c3ccc(O)cc3)c3c(N)ncnc32)cc2cccc(C)c2c1=O | < 1000 | > 10000 | > 10000 | < 1000 |
| Cc1cccc2cc(Cn3nc(-c4ccc(O)c(F)c4)c4c(N)ncnc43)n(-c3ccccc3F)c(=O)c12 | < 1000 | > 10000 | > 10000 | < 1000 |
| Cc1cccc2cc(Cn3nc(-c4cccc(O)c4)c4c(N)ncnc43)n(C3CCCCC3)c(=O)c12 | < 100 | > 10000 | < 10000 | < 1000 |
| Cc1cccc2cc(Cn3nc(-c4cc(O)cc(F)c4)c4c(N)ncnc43)n(C3CCCC3)c(=O)c12 | < 100 | < 10000 | < 10000 | < 100 |
| CC(=O)Nc1nc2ccc(-c3nn(Cc4cc5cccc(C)c5c(=O)n4C4CC4)c4ncnc(N)c34)cc2s1 | < 100 | < 100000 | < 100 | < 100 |
| Cc1cccc2cc(Cn3nc(-c4ccc(F)c(O)c4)c4c(N)ncnc43)n(C3CCCC3)c(=O)c12 | < 100 | > 10000 | > 10000 | – |
| Cc1ccccc1-n1c(Cn2nc(-c3ccc(F)c(O)c3)c3c(N)ncnc32)cc2cccc(C)c2c1=O | < 100 | > 10000 | < 10000 | < 100 |
| Cc1cccc2cc(Cn3nc(-c4ccc(Cl)c(O)c4)c4c(N)ncnc43)n(-c3ccccc3F)c(=O)c12 | < 100 | > 10000 | > 10000 | < 1000 |
| Cc1cccc2cc(Cn3nc(-c4cc(O)cc(F)c4)c4c(N)ncnc43)n(-c3ccccc3Cl)c(=O)c12 | < 100 | < 10000 | < 1000 | < 100 |
| Cc1ccccc1-n1c(Cn2nc(-c3ccc(F)c(O)c3)c3c(N)ncnc32)cc2cccc(F)c2c1=O | < 100 | > 10000 | > 10000 | – |
| Cc1ccccc1-n1c(C(C)Nc2ncnc3[nH]cnc23)cc2cccc(C)c2c1=O (configuration not stated) | < 100 | > 10000 | < 10000 | < 100 |
| CC(=O)Nc1nc2ccc(-c3nn(Cc4cc5cccc(Cl)c5c(=O)n4C4CC4)c4ncnc(N)c34)cc2s1 | < 100 | < 100000 | < 100 | < 100 |
| Cc1cccc2cc(Cn3nc(I)c4c(N)ncnc43)n(C3CCCCC3)c(=O)c12 | < 1000 | > 10000 | > 10000 | < 10000 |
| CC(=O)Nc1nc2ccc(-c3nn(Cc4cc5cccc(C)c5c(=O)n4C(C)C)c4ncnc(N)c34)cc2s1 | < 100 | < 100000 | < 10000 | < 100 |
| Cc1ccccc1-n1c(Cn2nc(-c3cn[nH]c3)c3c(N)ncnc32)cc2cccc(C)c2c1=O | < 100 | > 10000 | < 10000 | < 100 |
| CCn1c(Cn2nc(-c3ccc4nc(NC(C)=O)sc4c3)c3c(N)ncnc32)cc2cccc(C)c2c1=O | < 100 | < 100000 | < 1000 | < 100 |
| Cc1ccccc1-n1c(Cn2nc(-c3ccc4nc(N)ccc4c3)c3c(N)ncnc32)cc2cccc(C)c2c1=O | < 100 | < 1000 | < 10000 | < 100 |
| Cc1ccccc1-n1c(Cn2nc(-c3ccc4cc[nH]c4c3)c3c(N)ncnc32)cc2cccc(C)c2c1=O | < 100 | > 10000 | – | < 1000 |
| Cc1cccc2cc(Cn3nc(-c4cccc(O)c4)c4c(N)ncnc43)n(-c3ccccc3C(C)C)c(=O)c12 | < 100 | > 10000 | – | < 100 |
| Cc1ccccc1-n1c(Cn2nc(C#C[C@@H](C)O)c3c(N)ncnc32)cc2ccccc2c1=O | < 1000 | > 10000 | – | < 1000 |
| CNC(=O)Nc1nc2ccc(-c3nn(Cc4cc5cccc(C)c5c(=O)n4-c4ccccc4C)c4ncnc(N)c34)cc2s1 | < 100 | < 100000 | – | < 100 |
| Cc1ccccc1-n1c(Cn2nc(I)c3c(N)ncnc32)cc2ccccc2c1=O | < 1000 | > 10000 | – | < 1000 |
| COc1ccc(-c2nn(Cc3cc4cccc(C)c4c(=O)n3-c3ccccc3C)c3ncnc(N)c23)cc1 | < 1000 | > 10000 | – | < 1000 |

Continued, in another order:

| IC50 [2] [nM] | IC50 [3] [nM] | IC50 (PI3K p110 beta/p85 alpha) [nM] | Structure (SMILES) | EC50 [1] [nM] |
| --- | --- | --- | --- | --- |
| < 100 | > 10000 | < 10000 | Cc1cccc2cc(Cn3nc(C#C[C@@H](C)O)c4c(N)ncnc43)n(-c3ccccc3C(C)C)c(=O)c12 | < 100 |
| < 100 | < 100000 | < 100 | CC(=O)Nc1nc2ccc(-c3nn(Cc4cc5cccc(Cl)c5c(=O)n4C(C)C)c4ncnc(N)c34)cc2s1 | < 100 |
| < 100 | < 100000 | < 10000 | CC(=O)Nc1nc2ccc(-c3nn(Cc4cc5cccc(F)c5c(=O)n4C(C)C)c4ncnc(N)c34)cc2s1 | < 100 |
| < 100 | < 10000 | < 1000 | CCc1ccccc1-n1c(Cn2nc(-c3cc(O)cc(F)c3)c3c(N)ncnc32)cc2cccc(C)c2c1=O | < 100 |
| < 100 | > 10000 | > 10000 | Cc1ccccc1-n1c(Cn2nc(-c3cccc(O)c3)c3c(N)ncnc32)cc2cccc(F)c2c1=O | – |
| < 100 | > 10000 | < 10000 | Cc1ccccc1-n1c(Cn2nc(-c3cccc(O)c3)c3c(N)ncnc32)cc2cccc(C)c2c1=O | < 100 |
| < 100 | > 10000 | > 10000 | Cc1cccc2cc(Cn3nc(-c4cccc(O)c4)c4c(N)ncnc43)n(-c3ccccc3)c(=O)c12 | < 100 |
| < 100 | < 1000 | < 10000 | CC(=O)Nc1nc2ccc(-c3nn(Cc4cc5cccc(C)c5c(=O)n4-c4ccccc4)c4ncnc(N)c34)cc2s1 | < 100 |
| < 100 | > 10000 | < 10000 | Cc1cccc2cc(Cn3nc(-c4cccc(O)c4)c4c(N)ncnc43)n(C3CCC3)c(=O)c12 | < 1000 |
| < 100 | < 10000 | < 10000 | CCc1ccccc1-n1c(Cn2nc(-c3cn[nH]c3)c3c(N)ncnc32)cc2cccc(C)c2c1=O | < 100 |
| < 100 | > 10000 | > 10000 | Cc1ccccc1-n1c(Cn2nc(-c3ccc(Cl)c(O)c3)c3c(N)ncnc32)cc2ccccc2c1=O | – |
| < 100 | < 100000 | < 100 | Nc1ncnc2c1c(-c1cc(O)cc(F)c1)nn2Cc1cc2cccc(Cl)c2c(=O)n1C1CC1 | < 100 |
| < 100 | > 10000 | > 10000 | Cc1cccnc1-n1c(Cn2nc(-c3ccc(F)c(O)c3)c3c(N)ncnc32)cc2cccc(C)c2c1=O | < 100 |
| < 100 | < 1000 | < 100 | Cc1cccc2cc(Cn3nc(-c4cc(O)cc(F)c4)c4c(N)ncnc43)n(C3CC3)c(=O)c12 | < 100 |
| < 100 | < 100000 | < 1000 | CC(=O)Nc1nc2ccc(-c3nn(Cc4cc5cccc(C)c5c(=O)n4C)c4ncnc(N)c34)cc2s1 | < 100 |
| < 100 | > 10000 | < 10000 | Cc1cccc2cc(Cn3nc(-c4cc(O)cc(F)c4)c4c(N)ncnc43)n(C3CCCCC3)c(=O)c12 | < 1000 |
| < 100 | < 10000 | < 10000 | Cc1cccc2cc(Cn3nc(-c4cc(O)cc(F)c4)c4c(N)ncnc43)n(-c3ccccc3F)c(=O)c12 | < 100 |
| < 100 | > 10000 | > 10000 | Cc1ccccc1-n1c(Cn2nc(-c3ccc(F)c(O)c3)c3c(N)ncnc32)cc2ccccc2c1=O | < 100 |
| < 100 | > 10000 | < 10000 | Cc1cccc2cc(Cn3nc(-c4cccc(O)c4)c4c(N)ncnc43)n(-c3ccccc3O)c(=O)c12 | < 100 |
| < 100 | < 1000 | < 1000 | Cc1cccc2cc(Cn3nc(-c4cc(O)cc(F)c4)c4c(N)ncnc43)n(-c3ccccc3C(C)C)c(=O)c12 | < 100 |
| < 100 | < 1000 | < 10000 | Cc1cccc2cc(Cn3nc(-c4cc(O)cc(F)c4)c4c(N)ncnc43)n(-c3ccccc3)c(=O)c12 | < 100 |
| < 100 | < 10000 | < 10000 | Cc1cccc2cc(Cn3nc(-c4cc(O)cc(F)c4)c4c(N)ncnc43)n(C3CCC3)c(=O)c12 | < 100 |
| < 100 | > 10000 | – | Cc1ccccc1-n1c(Cn2nc(-c3cnc4[nH]ccc4c3)c3c(N)ncnc32)cc2cccc(C)c2c1=O | < 100 |
| < 100 | > 10000 | > 10000 | CCc1ccccc1-n1c(Cn2nc(-c3cccc(O)c3)c3c(N)ncnc32)cc2cccc(C)c2c1=O | < 100 |
| < 100 | > 10000 | – | Cc1ccccc1-n1c(Cn2nc(Br)c3c(N)ncnc32)cc2cccc(C)c2c1=O | < 1000 |
| < 100 | < 100000 | < 1000 | Cc1ccccc1-n1c(Cn2nc(-c3ccc4nc(N)ncc4c3)c3c(N)ncnc32)cc2cccc(C)c2c1=O | < 100 |
